This assay relates to KRAS G12V dependent lung adenocarcinoma cell line, NCI-H441. The assay is described as follows: Cellular pERK (Thr202/Tyr204) FRET/HTRF assay. It is filed as cell-based. The following applies: Homo sapiens, NCI-H441, cellular pERK (Thr202/Tyr204) HTRF, NCI-H441 cells. In a few lines: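 IC50 reflects inhibition of ERK1/2 Thr202/Tyr204 phosphorylation, quantified by HTRF after a 1 hr treatment of KRAS G12V-driven NCI-H441 cells. DMSO served as negative control.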
Background: Time-resolved FRET reads energy transfer from a long-lived donor to a nearby acceptor.

Structures are written as SMILES.

Broadly, the IC50 is the concentration that gives 50% inhibition. A higher IC50 goes with lower potency. The compound `C=C1CN2CCC[C@@]2(COc2nc(N3CCCC[C@@H]4[C@@H](F)[C@@H]43)c3cnc(-c4cc(N)cc(Cl)c4C(F)(F)F)c(F)c3n2)C1` [Example 368, 3-chloro-5-(8-fluoro-4-((1R,7S,8R)-8-fluoro-2-azabicyclo[5.1.0]octan-2-yl)-2-(((S)-2-methylenetetrahydro-1H-pyrrolizin-7a(5H)-yl)methoxy)pyrido[4,3-d]pyrimidin-7-yl)-4-(trifluoromethyl)aniline] yielded an IC50 of 500 to 10000 nM.

`Nc1cc(Cl)c(C(F)(F)F)c(-c2ncc3c(N4CCCC[C@H]5[C@H](F)[C@H]54)nc(OC[C@@]45CCCN4CC(=C(F)F)C5)nc3c2F)c1` [Example 369, 3-chloro-5-(2-(((S)-2-(difluoromethylene)tetrahydro-1H-pyrrolizin-7a(5H)-yl)methoxy)-8-fluoro-4-((1S,7R,8S)-8-fluoro-2-azabicyclo[5.1.0]octan-2-yl)pyrido[4,3-d]pyrimidin-7-yl)-4-(trifluoromethyl)aniline] returned an IC50 of 50 to 500 nM.

For the compound `Nc1cc(Cl)c(C(F)(F)F)c(-c2ncc3c(N4CCCC[C@@H]5[C@@H](F)[C@@H]54)nc(OC[C@@]45CCCN4CC(=C(F)F)C5)nc3c2F)c1` [Example 370, 3-chloro-5-(2-(((S)-2-(difluoromethylene)tetrahydro-1H-pyrrolizin-7a(5H)-yl)methoxy)-8-fluoro-4-((1R,7S,8R)-8-fluoro-2-azabicyclo[5.1.0]octan-2-yl)pyrido[4,3-d]pyrimidin-7-yl)-4-(trifluoromethyl)aniline], the IC50 fell in the range of 500 to 10000 nM.

The compound `Nc1cc(Cl)c(C(F)(F)F)c(-c2ncc3c(N4CCCC[C@H]5[C@H](F)[C@H]54)nc(OC[C@@]45CCCN4C/C(=C/F)C5)nc3c2F)c1` [Example 371, 3-chloro-5-(8-fluoro-4-((1S,7R,8S)-8-fluoro-2-azabicyclo[5.1.0]octan-2-yl)-2-(((S,E)-2-(fluoromethylene)tetrahydro-1H-pyrrolizin-7a(5H)-yl)methoxy)pyrido[4,3-d]pyrimidin-7-yl)-4-(trifluoromethyl)aniline] returned a half-inhibitory concentration (IC50) of less than 50 nM.

For the compound `Nc1cc(Cl)c(C(F)(F)F)c(-c2ncc3c(N4CCCC[C@@H]5[C@@H](F)[C@@H]54)nc(OC[C@@]45CCCN4C/C(=C/F)C5)nc3c2F)c1` [Example 372, 3-chloro-5-(8-fluoro-4-((1R,7S,8R)-8-fluoro-2-azabicyclo[5.1.0]octan-2-yl)-2-(((S,E)-2-(fluoromethylene)tetrahydro-1H-pyrrolizin-7a(5H)-yl)methoxy)pyrido[4,3-d]pyrimidin-7-yl)-4-(trifluoromethyl)aniline], the half-inhibitory concentration (IC50) fell in the range of 500 to 10000 nM.

As to `Nc1cc(Cl)c(C(F)(F)F)c(-c2ncc3c(N4CCCC[C@H]5[C@H](F)[C@H]54)nc(OC[C@@]45CCCN4C/C(=C\F)C5)nc3c2F)c1` [Example 373, 3-chloro-5-(8-fluoro-4-((1S,7R,8S)-8-fluoro-2-azabicyclo[5.1.0]octan-2-yl)-2-(((S,Z)-2-(fluoromethylene)tetrahydro-1H-pyrrolizin-7a(5H)-yl)methoxy)pyrido[4,3-d]pyrimidin-7-yl)-4-(trifluoromethyl)aniline], the IC50 is less than 50 nM.

`Nc1cc(Cl)c(C(F)(F)F)c(-c2ncc3c(N4CCCC[C@@H]5[C@@H](F)[C@@H]54)nc(OC[C@@]45CCCN4C/C(=C\F)C5)nc3c2F)c1` [Example 374, 3-chloro-5-(8-fluoro-4-((1R,7S,8R)-8-fluoro-2-azabicyclo[5.1.0]octan-2-yl)-2-(((S,Z)-2-(fluoromethylene)tetrahydro-1H-pyrrolizin-7a(5H)-yl)methoxy)pyrido[4,3-d]pyrimidin-7-yl)-4-(trifluoromethyl)aniline] displayed a half-maximal inhibitory concentration (IC50) of 500 to 10000 nM.

For `C#Cc1c(F)ccc2cccc(-c3ncc4c(N5CCOC[C@H]6[C@H](F)[C@H]65)nc(OC[C@]56C/C(=C\F)CN5CCC65CC5)nc4c3F)c12` [Example 375, (1S,7S,8S)-2-(7-(8-Ethynyl-7-fluoronaphthalen-1-yl)-8-fluoro-2-(((R,E)-6′-(fluoromethylene)tetrahydrospiro[cyclopropane-1,1′-pyrrolizin]-7a′(5′H)-yl)methoxy)pyrido[4,3-d]pyrimidin-4-yl)-8-fluoro-5-oxa-2-azabicyclo[5.1.0]octane], the IC50 was less than 50 nM.

The compound `C#Cc1c(F)ccc2cccc(-c3ncc4c(N5CCOC[C@H]6[C@H](F)[C@H]65)nc(OC[C@]56C/C(=C/F)CN5CCC65CC5)nc4c3F)c12` [Example 376, (1S,7S,8S)-2-(7-(8-Ethynyl-7-fluoronaphthalen-1-yl)-8-fluoro-2-(((R,Z)-6′-(fluoromethylene)tetrahydrospiro[cyclopropane-1,1′-pyrrolizin]-7a′(5′H)-yl)methoxy)pyrido[4,3-d]pyrimidin-4-yl)-8-fluoro-5-oxa-2-azabicyclo[5.1.0]octane] showed an IC50 of less than 50 nM.

As to `C#Cc1c(F)ccc2cccc(-c3ncc4c(N5CCCC[C@H]6[C@H](F)[C@H]65)nc(OC[C@]56C/C(=C\F)CN5CCC65CC5)nc4c3F)c12` [Example 377, (R,E)-7a′-(((7-(8-ethynyl-7-fluoronaphthalen-1-yl)-8-fluoro-4-((1S,7R,8S)-8-fluoro-2-azabicyclo[5.1.0]octan-2-yl)pyrido[4,3-d]pyrimidin-2-yl)oxy)methyl)-6′-(fluoromethylene)hexahydrospiro[cyclopropane-1,1′-pyrrolizine]], the IC50 was less than 50 nM.

Compound `Nc1cc(Cl)c(C(F)(F)F)c(-c2ncc3c(N4CCCC[C@H]5[C@H](F)[C@H]54)nc(OC[C@]45C/C(=C\F)CN4CCC54CC4)nc3c2F)c1` [Example 378, 3-chloro-5-(8-fluoro-4-((1S,7R,8S)-8-fluoro-2-azabicyclo[5.1.0]octan-2-yl)-2-(((R,E)-6′-(fluoromethylene)tetrahydrospiro[cyclopropane-1,1′-pyrrolizin]-7a′(5′H)-yl)methoxy)pyrido[4,3-d]pyrimidin-7-yl)-4-(trifluoromethyl)aniline] showed an IC50 of 50 to 500 nM.

As for `C=C1CN2CCC3(CC3)[C@@]2(COc2nc(N3CCCC[C@H]4[C@H](F)[C@H]43)c3cnc(-c4cc(N)c(F)c(C)c4C(F)(F)F)c(F)c3n2)C1` [Example 379, 2-fluoro-5-(8-fluoro-4-((1S,7R,8S)-8-fluoro-2-azabicyclo[5.1.0]octan-2-yl)-2-(((R)-6′-methylenetetrahydrospiro[cyclopropane-1,1′-pyrrolizin]-7a′(5′H)-yl)methoxy)pyrido[4,3-d]pyrimidin-7-yl)-3-methyl-4-(trifluoromethyl)aniline], the IC50 was in the range of 50 to 500 nM.

`Cc1c(F)c(N)cc(-c2ncc3c(N4CCCC[C@H]5[C@H](F)[C@H]54)nc(OC[C@]45C/C(=C\F)CN4CCC54CC4)nc3c2F)c1C(F)(F)F` [Example 380, 2-fluoro-5-(8-fluoro-4-((1S,7R,8S)-8-fluoro-2-azabicyclo[5.1.0]octan-2-yl)-2-(((R,E)-6′-(fluoromethylene)tetrahydrospiro[cyclopropane-1,1′-pyrrolizin]-7a′(5′H)-yl)methoxy)pyrido[4,3-d]pyrimidin-7-yl)-3-methyl-4-(trifluoromethyl)aniline] showed an IC50 of 50 to 500 nM.

Compound `Cc1c(F)c(N)cc(-c2ncc3c(N4CCCC[C@H]5[C@H](F)[C@H]54)nc(OC[C@]45C/C(=C/F)CN4CCC54CC4)nc3c2F)c1C(F)(F)F` [Example 381, 2-fluoro-5-(8-fluoro-4-((1S,7R,8S)-8-fluoro-2-azabicyclo[5.1.0]octan-2-yl)-2-(((R,Z)-6′-(fluoromethylene)tetrahydrospiro[cyclopropane-1,1′-pyrrolizin]-7a′(5′H)-yl)methoxy)pyrido[4,3-d]pyrimidin-7-yl)-3-methyl-4-(trifluoromethyl)aniline] came in with an IC50 of 50 to 500 nM.

In turn, `[2H]C([2H])(F)Oc1c(F)ccc2cccc(-c3ncc4c(N5CCCC[C@H]6[C@H](F)[C@H]65)nc(OC[C@]56C/C(=C\F)CN5CCC65CC5)nc4c3F)c12` [Example 382, (R,E)-7a′-(((8-fluoro-7-(7-fluoro-8-(fluoromethoxy-d2)naphthalen-1-yl)-4-((1S,7R,8S)-8-fluoro-2-azabicyclo[5.1.0]octan-2-yl)pyrido[4,3-d]pyrimidin-2-yl)oxy)methyl)-6′-(fluoromethylene)hexahydrospiro [cyclopropane-1,1′-pyrrolizine]] returned an IC50 of less than 50 nM.

In the case of `[2H]C([2H])(F)Oc1c(F)ccc2cc(N)cc(-c3ncc4c(N5CCCC[C@H]6[C@H](F)[C@H]65)nc(OC[C@]56C/C(=C\F)CN5CCC65CC5)nc4c3F)c12` [Example 383, 6-fluoro-4-(8-fluoro-4-((1S,7R,8S)-8-fluoro-2-azabicyclo[5.1.0]octan-2-yl)-2-(((R,E)-6′-(fluoromethylene)tetrahydrospiro[cyclopropane-1,1′-pyrrolizin]-7a′(5′H)-yl)methoxy)pyrido[4,3-d]pyrimidin-7-yl)-5-(fluoromethoxy-d2)naphthalen-2-amine], the half-maximal inhibitory concentration (IC50) was less than 50 nM.

Consider `[2H]C([2H])(F)Oc1c(F)ccc2cccc(-c3ncc4c(N5CCOC[C@H]6[C@H](F)[C@H]65)nc(OC[C@]56CC(=C)CN5CCC65CC5)nc4c3F)c12` [Example 384, (1S,7S,8S)-8-fluoro-2-(8-fluoro-7-(7-fluoro-8-(fluoromethoxy-d2)naphthalen-1-yl)-2-(((R)-6′-methylenetetrahydrospiro[cyclopropane-1,1′-pyrrolizin]-7a′(5′H)-yl)methoxy)pyrido[4,3-d]pyrimidin-4-yl)-5-oxa-2-azabicyclo[5.1.0]octane], for which the half-inhibitory concentration (IC50) is less than 50 nM.

As to `[2H]C([2H])(F)Oc1c(F)ccc2cccc(-c3ncc4c(N5CCOC[C@H]6[C@H](F)[C@H]65)nc(OC[C@]56C/C(=C\F)CN5CCC65CC5)nc4c3F)c12` [Example 385, (1S,7S,8S)-8-fluoro-2-(8-fluoro-7-(7-fluoro-8-(fluoromethoxy-d2)naphthalen-1-yl)-2-(((R,E)-6′-(fluoromethylene)tetrahydrospiro[cyclopropane-1,1′-pyrrolizin]-7a′(5′H)-yl)methoxy)pyrido[4,3-d]pyrimidin-4-yl)-5-oxa-2-azabicyclo[5.1.0]octane], the IC50 was less than 50 nM.
